# From PubChem BioAssay (NCI)
#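 Each compound was tested at five concentrations against cells in 96-well plates for 48 hours. The concentration for full growth arrest is given as TGI.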
# Tests used:
# Test in all cases: NCI-60 cell line screen, 48 h
# [1] = test system: 786-0 renal
# [2] = test system: A498 renal
# [3] = test system: A549 NSCLC
# [4] = test system: ACHN renal
# [5] = test system: BT-549 breast
# [6] = test system: CAKI-1 renal
# [7] = test system: CCRF-CEM leukemia
# [8] = test system: COLO 205 colon
# [9] = test system: DU-145 prostate
# [10] = test system: EKVX NSCLC
# [11] = test system: HCC-2998 colon
# [12] = test system: HCT-116 colon
# [13] = test system: HCT-15 colon
# [14] = test system: HL-60(TB) leukemia
# [15] = test system: HOP-62 NSCLC
# [16] = test system: HOP-92 NSCLC
# [17] = test system: HS 578T breast
# [18] = test system: HT29 colon
# [19] = test system: IGROV1 ovarian
# [20] = test system: K-562 leukemia
# [21] = test system: KM12 colon
# [22] = test system: LOX IMVI melanoma
# [23] = test system: M14 melanoma
# [24] = test system: MALME-3M melanoma
# [25] = test system: MCF7 breast
# [26] = test system: MDA-MB-231 breast
# [27] = test system: MDA-MB-435
# [28] = test system: MDA-N
# [29] = test system: MOLT-4 leukemia
# [30] = test system: NCI-H226 lung
# [31] = test system: NCI-H23 lung
# [32] = test system: NCI-H460 lung
# [33] = test system: NCI-H522 lung
# [34] = test system: NCI/ADR-RES ovarian
# [35] = test system: OVCAR-3 ovarian
# [36] = test system: OVCAR-4 ovarian
# [37] = test system: OVCAR-5 ovarian
# [38] = test system: OVCAR-8 ovarian
# [39] = test system: PC-3 prostate
# [40] = test system: RPMI-8226 leukemia
# [41] = test system: SF-268 CNS
# [42] = test system: SF-295 CNS
# [43] = test system: SF-539 CNS
# [44] = test system: SK-MEL-2 melanoma
# [45] = test system: SK-MEL-28 melanoma
# [46] = test system: SK-MEL-5 melanoma
# [47] = test system: SK-OV-3 ovarian
# [48] = test system: SN12C renal
# [49] = test system: SNB-19 CNS
# [50] = test system: SNB-75 CNS
# [51] = test system: SR leukemia
# [52] = test system: SW-620 colon
# [53] = test system: T-47D breast
# [54] = test system: TK-10 renal
# [55] = test system: U251 CNS
# [56] = test system: UACC-257 melanoma
# [57] = test system: UACC-62 melanoma
# [58] = test system: UO-31 renal
# [59] = test system: RXF 393 renal
smiles,measurement,setting,value
O=C(O)COc1cc(-c2ccccc2)nc2ccc(F)cc12,TGI,[1],> 100 µM
same,TGI,[2],> 100 µM
same,TGI,[3],> 100 µM
same,TGI,[4],> 100 µM
same,TGI,[5],> 100 µM
same,TGI,[6],> 100 µM
same,TGI,[7],> 100 µM
same,TGI,[8],> 100 µM
same,TGI,[9],> 100 µM
same,TGI,[10],> 100 µM
same,TGI,[11],> 100 µM
same,TGI,[12],> 100 µM
same,TGI,[13],> 100 µM
same,TGI,[14],> 100 µM
same,TGI,[15],> 100 µM
same,TGI,[16],> 100 µM
same,TGI,[17],> 100 µM
same,TGI,[18],> 100 µM
same,TGI,[19],> 100 µM
same,TGI,[20],> 100 µM
same,TGI,[21],> 100 µM
same,TGI,[22],> 100 µM
same,TGI,[23],> 100 µM
same,TGI,[24],> 100 µM
same,TGI,[25],> 100 µM
same,TGI,[26],> 100 µM
same,TGI,[27],> 100 µM
same,TGI,[28],> 100 µM
same,TGI,[29],> 100 µM
same,TGI,[30],> 100 µM
same,TGI,[31],> 100 µM
same,TGI,[32],> 100 µM
same,TGI,[33],> 100 µM
same,TGI,[34],> 100 µM
same,TGI,[35],> 100 µM
same,TGI,[36],> 100 µM
same,TGI,[37],> 100 µM
same,TGI,[38],> 100 µM
same,TGI,[39],> 100 µM
same,TGI,[40],> 100 µM
same,TGI,[41],> 100 µM
same,TGI,[42],> 100 µM
same,TGI,[43],> 100 µM
same,TGI,[44],> 100 µM
same,TGI,[45],> 100 µM
same,TGI,[46],> 100 µM
same,TGI,[47],> 100 µM
same,TGI,[48],> 100 µM
same,TGI,[49],> 100 µM
same,TGI,[50],> 100 µM
same,TGI,[51],> 100 µM
same,TGI,[52],> 100 µM
same,TGI,[53],> 100 µM
same,TGI,[54],> 100 µM
same,TGI,[55],> 100 µM
same,TGI,[56],> 100 µM
same,TGI,[57],> 100 µM
same,TGI,[58],> 100 µM
O=C(O)CC1OCC=C2C[N+]3([O-])CCC45c6ccccc6NC4C1C2CC53 (stereo unspecified),TGI,[1],> 100 µM
same,TGI,[2],> 100 µM
same,TGI,[3],> 100 µM
same,TGI,[4],> 100 µM
same,TGI,[5],> 100 µM
same,TGI,[6],> 100 µM
same,TGI,[8],> 100 µM
same,TGI,[9],> 100 µM
same,TGI,[10],> 100 µM
same,TGI,[12],> 100 µM
same,TGI,[13],> 100 µM
same,TGI,[14],> 100 µM
same,TGI,[15],> 100 µM
same,TGI,[16],> 100 µM
same,TGI,[17],> 100 µM
same,TGI,[18],> 100 µM
same,TGI,[19],> 100 µM
same,TGI,[20],> 100 µM
same,TGI,[21],> 100 µM
same,TGI,[22],> 100 µM
same,TGI,[23],> 100 µM
same,TGI,[24],> 100 µM
same,TGI,[25],> 100 µM
same,TGI,[26],> 100 µM
same,TGI,[27],> 100 µM
same,TGI,[28],> 100 µM
same,TGI,[29],> 100 µM
same,TGI,[30],> 100 µM
same,TGI,[31],> 100 µM
same,TGI,[32],> 100 µM
same,TGI,[33],> 100 µM
same,TGI,[34],> 100 µM
same,TGI,[35],> 100 µM
same,TGI,[36],> 100 µM
same,TGI,[37],> 100 µM
same,TGI,[38],> 100 µM
same,TGI,[39],> 100 µM
same,TGI,[40],> 100 µM
same,TGI,[59],> 100 µM
same,TGI,[41],> 100 µM
same,TGI,[42],> 100 µM
same,TGI,[43],> 100 µM
same,TGI,[44],34.2 µM
same,TGI,[45],> 100 µM
same,TGI,[46],> 100 µM
same,TGI,[47],> 100 µM
same,TGI,[48],> 100 µM
same,TGI,[49],> 100 µM
same,TGI,[51],> 100 µM
same,TGI,[52],> 100 µM
same,TGI,[53],> 100 µM
same,TGI,[54],> 100 µM
same,TGI,[55],> 100 µM
same,TGI,[56],> 100 µM
same,TGI,[57],> 100 µM
same,TGI,[58],> 100 µM
O=c1oc2ccc(Cl)cc2cc1C1=CSC2=NCCN12,TGI,[1],33.4 µM
same,TGI,[3],> 100 µM
same,TGI,[4],> 100 µM
same,TGI,[5],37.9 µM
same,TGI,[6],> 100 µM
same,TGI,[7],47 µM
same,TGI,[8],41.5 µM
same,TGI,[9],36.2 µM
same,TGI,[10],51.6 µM
same,TGI,[11],29.4 µM
same,TGI,[12],32 µM
same,TGI,[13],41.6 µM
same,TGI,[14],61 µM
same,TGI,[15],34.3 µM
same,TGI,[16],48.3 µM
same,TGI,[17],93 µM
same,TGI,[18],36.3 µM
same,TGI,[19],34 µM
same,TGI,[20],36.8 µM
same,TGI,[21],41.3 µM
same,TGI,[22],35.1 µM
same,TGI,[23],> 100 µM
same,TGI,[24],79.7 µM
same,TGI,[25],40.1 µM
same,TGI,[26],40.9 µM
same,TGI,[27],57.8 µM
same,TGI,[28],47.4 µM
same,TGI,[29],36.4 µM
same,TGI,[31],47.4 µM
same,TGI,[32],> 100 µM
same,TGI,[33],34.5 µM
same,TGI,[34],> 100 µM
same,TGI,[35],35.5 µM
same,TGI,[36],65.4 µM
same,TGI,[37],> 100 µM
same,TGI,[38],38.7 µM
same,TGI,[39],49.2 µM
same,TGI,[40],44.1 µM
same,TGI,[59],49.5 µM
same,TGI,[41],33.4 µM
same,TGI,[42],59.1 µM
same,TGI,[43],72 µM
same,TGI,[44],55.8 µM
same,TGI,[45],80.1 µM
same,TGI,[46],34.2 µM
same,TGI,[47],> 100 µM
same,TGI,[48],32.7 µM
same,TGI,[49],67.7 µM
same,TGI,[50],> 100 µM
same,TGI,[51],34.6 µM
same,TGI,[52],49.1 µM
same,TGI,[53],79.7 µM
same,TGI,[54],84.4 µM
same,TGI,[55],56.2 µM
same,TGI,[56],> 100 µM
same,TGI,[57],40.4 µM
same,TGI,[58],51.4 µM
